Reference: PMC7686313, “Phase 1 study of mTORC1/2 inhibitor sapanisertib (TAK-228) in advanced solid tumours, with an expansion phase in renal, endometrial or bladder cancer” (British Journal of Cancer, 2020)

Experiment: Safety (adverse events, NCI CTCAE v4.0), expansion phase
Details: expansion QW 30 mg

## CC(C)n1nc(-c2ccc3oc(N)nc3c2)c2c(N)ncnc21 [Sapanisertib]
  Abdominal pain, all-grade AE of any cause: 6 (35) n (%)
  Abdominal pain, grade ≥3 AE of any cause: 0 (0) n (%)
  Acute kidney injury, grade ≥3 AE of any cause: 0 (0) n (%)
  Acute kidney injury, treatment-related AE: 0 (0) n (%)
  Anaemia, all-grade AE of any cause: 2 (12) n (%)
  Anaemia, grade ≥3 AE of any cause: 1 (6) n (%)
  Anaemia, treatment-related AE: 2 (12) n (%)
  Any AE: 17 (100) n (%)
  Any AE resulting in dose modification/interruption: 8 (47) n (%)
  Any AE resulting in treatment discontinuation: 3 (18) n (%)
  Any SAE: 6 (35) n (%)
  Any grade ≥3 AE: 9 (53) n (%)
  Any treatment-related AE: 17 (100) n (%)
  Any treatment-related SAE: 3 (18) n (%)
  Any treatment-related grade ≥3 AE: 6 (35) n (%)
  Arthralgia, all-grade AE of any cause: 2 (12) n (%)
  Asthenia, grade ≥3 AE of any cause: 0 (0) n (%)
  Asthenia, treatment-related AE: 1 (6) n (%)
  Asthenia, treatment-related grade ≥3 AE: 0 (0) n (%)
  Blood creatinine increased, all-grade AE of any cause: 4 (24) n (%)
  Blood creatinine increased, treatment-related AE: 1 (6) n (%)
  Constipation, all-grade AE of any cause: 8 (47) n (%)
  Constipation, grade ≥3 AE of any cause: 1 (6) n (%)
  Cough, all-grade AE of any cause: 5 (29) n (%)
  Decreased appetite, all-grade AE of any cause: 7 (41) n (%)
  Decreased appetite, treatment-related AE: 6 (35) n (%)
  Dehydration, all-grade AE of any cause: 4 (24) n (%)
  Dehydration, grade ≥3 AE of any cause: 0 (0) n (%)
  Dehydration, treatment-related AE: 2 (12) n (%)
  Dehydration, treatment-related grade ≥3 AE: 0 (0) n (%)
  Depression, all-grade AE of any cause: 4 (24) n (%)
  Diarrhoea, all-grade AE of any cause: 8 (47) n (%)
  Diarrhoea, grade ≥3 AE of any cause: 0 (0) n (%)
  Diarrhoea, treatment-related AE: 5 (29) n (%)
  Diarrhoea, treatment-related grade ≥3 AE: 0 (0) n (%)
  Dizziness, all-grade AE of any cause: 0 (0) n (%)
  Dry mouth, all-grade AE of any cause: 3 (18) n (%)
  Dry mouth, treatment-related AE: 1 (6) n (%)
  Dysgeusia, all-grade AE of any cause: 4 (24) n (%)
  Dysgeusia, treatment-related AE: 3 (18) n (%)
  Dyspepsia, treatment-related AE: 3 (18) n (%)
  Dyspnoea, grade ≥3 AE of any cause: 0 (0) n (%)
  Fatigue, all-grade AE of any cause: 11 (65) n (%)
  Fatigue, grade ≥3 AE of any cause: 2 (12) n (%)
  Fatigue, treatment-related AE: 11 (65) n (%)
  Fatigue, treatment-related grade ≥3 AE: 2 (12) n (%)
  Haematuria, grade ≥3 AE of any cause: 0 (0) n (%)
  Headache, all-grade AE of any cause: 2 (12) n (%)
  Headache, treatment-related AE: 0 (0) n (%)
  Hypercholesterolemia, treatment-related AE: 1 (6) n (%)
  Hyperglycaemia, all-grade AE of any cause: 12 (71) n (%)
  Hyperglycaemia, grade ≥3 AE of any cause: 2 (12) n (%)
  Hyperglycaemia, treatment-related AE: 12 (71) n (%)
  Hyperglycaemia, treatment-related grade ≥3 AE: 2 (12) n (%)
  Hyperkalaemia, grade ≥3 AE of any cause: 0 (0) n (%)
  Hypertension, grade ≥3 AE of any cause: 0 (0) n (%)
  Hypokalaemia, grade ≥3 AE of any cause: 1 (6) n (%)
  Hyponatremia, grade ≥3 AE of any cause: 1 (6) n (%)
  Hypophosphatemia, grade ≥3 AE of any cause: 2 (12) n (%)
  Hypophosphatemia, treatment-related AE: 2 (12) n (%)
  Hypophosphatemia, treatment-related grade ≥3 AE: 1 (6) n (%)
  Lymphopenia, grade ≥3 AE of any cause: 0 (0) n (%)
  Lymphopenia, treatment-related grade ≥3 AE: 0 (0) n (%)
  Musculoskeletal chest pain, grade ≥3 AE of any cause: 0 (0) n (%)
  Nausea, all-grade AE of any cause: 13 (76) n (%)
  Nausea, grade ≥3 AE of any cause: 2 (12) n (%)
  Nausea, treatment-related AE: 11 (65) n (%)
  Nausea, treatment-related grade ≥3 AE: 1 (6) n (%)
  Oedema peripheral, all-grade AE of any cause: 1 (6) n (%)
  On-study deaths: 2 (12) n (%)
  Oropharyngeal pain, all-grade AE of any cause: 1 (6) n (%)
  Pain in extremity, grade ≥3 AE of any cause: 2 (12) n (%)
  Pneumonia, grade ≥3 AE of any cause: 0 (0) n (%)
  Pruritus generalised, all-grade AE of any cause: 4 (24) n (%)
  Pruritus generalised, treatment-related AE: 2 (12) n (%)
  Pruritus generalised, treatment-related grade ≥3 AE: 0 (0) n (%)
  Pruritus, all-grade AE of any cause: 1 (6) n (%)
  Pruritus, treatment-related AE: 1 (6) n (%)
  Pyrexia, all-grade AE of any cause: 1 (6) n (%)
  Rash maculo-papular, all-grade AE of any cause: 3 (18) n (%)
  Rash maculo-papular, grade ≥3 AE of any cause: 0 (0) n (%)
  Rash maculo-papular, treatment-related AE: 2 (12) n (%)
  Rash maculo-papular, treatment-related grade ≥3 AE: 0 (0) n (%)
  Rash, treatment-related AE: 0 (0) n (%)
  Rash, treatment-related grade ≥3 AE: 0 (0) n (%)
  Sepsis, grade ≥3 AE of any cause: 1 (6) n (%)
  Stomatitis (includes oropharyngeal pain and mucosal inflammation), treatment-related AE: 8 (47) n (%)
  Stomatitis, all-grade AE of any cause: 9 (53) n (%)
  Stomatitis, grade ≥3 AE of any cause: 0 (0) n (%)
  Stomatitis, treatment-related grade ≥3 AE: 0 (0) n (%)
  Thrombocytopenia, grade ≥3 AE of any cause: 1 (6) n (%)
  Thrombocytopenia, treatment-related grade ≥3 AE: 1 (6) n (%)
  Transitional cell carcinoma, grade ≥3 AE of any cause: 1 (6) n (%)
  Urinary tract infection, all-grade AE of any cause: 1 (6) n (%)
  Vomiting, all-grade AE of any cause: 10 (59) n (%)
  Vomiting, grade ≥3 AE of any cause: 1 (6) n (%)
  Vomiting, treatment-related AE: 10 (59) n (%)
  Weight decreased, all-grade AE of any cause: 2 (12) n (%)
  Weight decreased, treatment-related AE: 0 (0) n (%)
